What was measured:
Assay in all cases: Cell proliferation assay (ATPlite), drug with vs without cobicistat
Type in all cases: cell-based
[1] = tested on: U-87 MG; conditions: U-87 MG cell line; 120 hours incubation
Summary of the method: (§1)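 Following 24 h of growth after seeding at 200–3200 cells/well, cultures received test compound in duplicate over a 9-point dilution series (3.16×10^−5–3.16×10^−9 M; 0.4% DMSO). They were incubated a further 120 h before luminescent ATP detection.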

[2] = tested on: MG-63; conditions: MG-63 cell line; 120 hours incubation
Summary of the method: as §1

[3] = tested on: SW480; conditions: SW480 cell line; 120 hours incubation
Summary of the method: as §1

[4] = tested on: VA-ES-BJ; conditions: VA-ES-BJ cell line; 120 hours incubation
Summary of the method: as §1

[5] = tested on: T98G; conditions: T98G cell line; 120 hours incubation
Summary of the method: as §1

[6] = tested on: MIA PaCa-2; conditions: MIA PaCa-2 cell line; 120 hours incubation
Summary of the method: as §1

[7] = tested on: PA-1; conditions: PA-1 cell line; 120 hours incubation
Summary of the method: as §1

[8] = tested on: C-33 A; conditions: C-33 A cell line; 120 hours incubation
Summary of the method: as §1

[9] = tested on: SNU-C2B; conditions: SNU-C2B cell line; 120 hours incubation
Summary of the method: as §1

[10] = tested on: U-2 OS; conditions: U-2 OS cell line; 120 hours incubation
Summary of the method: as §1

[11] = tested on: ACHN; conditions: ACHN cell line; 120 hours incubation
Summary of the method: as §1

[12] = tested on: A-498; conditions: A-498 cell line; 120 hours incubation
Summary of the method: as §1

[13] = tested on: SK-N-FI; conditions: SK-N-FI cell line; 120 hours incubation
Summary of the method: as §1

[14] = tested on: MeWo; conditions: MeWo cell line; 120 hours incubation
Summary of the method: as §1

[15] = tested on: COLO 205; conditions: COLO 205 cell line; 120 hours incubation
Summary of the method: as §1

[16] = tested on: OVCAR-3; conditions: OVCAR-3 cell line; 120 hours incubation
Summary of the method: as §1

[17] = tested on: Hs 578T; conditions: Hs 578T cell line; 120 hours incubation
Summary of the method: as §1

[18] = tested on: SUP-T1; conditions: SUP-T1 cell line; 120 hours incubation
Summary of the method: as §1

[19] = tested on: A-172; conditions: A-172 cell line; 120 hours incubation
Summary of the method: as §1

[20] = tested on: HCT-15; conditions: HCT-15 cell line; 120 hours incubation
Summary of the method: as §1

[21] = tested on: Daoy; conditions: Daoy cell line; 120 hours incubation
Summary of the method: as §1

[22] = tested on: A388; conditions: A388 cell line; 120 hours incubation
Summary of the method: as §1

[23] = tested on: 786-O; conditions: 786-O cell line; 120 hours incubation
Summary of the method: as §1

[24] = tested on: A-427; conditions: A-427 cell line; 120 hours incubation
Summary of the method: as §1

[25] = tested on: FaDu; conditions: FaDu cell line; 120 hours incubation
Summary of the method: as §1

[26] = tested on: LNCaP FGC; conditions: LNCaP FGC cell line; 120 hours incubation
Summary of the method: as §1

[27] = tested on: A375; conditions: A375 cell line; 120 hours incubation
Summary of the method: as §1

[28] = tested on: DoTc2 4510; conditions: DoTc2 4510 cell line; 120 hours incubation
Summary of the method: as §1

[29] = tested on: A-204; conditions: A-204 cell line; 120 hours incubation
Summary of the method: as §1

[30] = tested on: SW48; conditions: SW48 cell line; 120 hours incubation
Summary of the method: as §1

## CC[C@]1(O)C[C@H]2CN(CCc3c([nH]c4ccccc34)[C@@](C(=O)OC)(c3cc4c(cc3OC)N(C=O)[C@H]3[C@@](O)(C(=O)OC)[C@H](OC(C)=O)[C@]5(CC)C=CCN6CC[C@]43[C@@H]65)C2)C1 [vincristine]
[1]
  Fold change in IC50 (IC50 [Drug + Cobicistat]/IC50 [Drug]): 3.1 fold
[2]
  Fold change in IC50 (IC50 [Drug + Cobicistat]/IC50 [Drug]): 3.8 fold
[3]
  Fold change in IC50 (IC50 [Drug + Cobicistat]/IC50 [Drug]): 3.3 fold
[4]
  Fold change in IC50 (IC50 [Drug + Cobicistat]/IC50 [Drug]): 5.4 fold
[5]
  Fold change in IC50 (IC50 [Drug + Cobicistat]/IC50 [Drug]): 4.1 fold
[6]
  Fold change in IC50 (IC50 [Drug + Cobicistat]/IC50 [Drug]): 3.6 fold
[7]
  Fold change in IC50 (IC50 [Drug + Cobicistat]/IC50 [Drug]): 4.2 fold
[8]
  Fold change in IC50 (IC50 [Drug + Cobicistat]/IC50 [Drug]): 2.7 fold
[9]
  Fold change in IC50 (IC50 [Drug + Cobicistat]/IC50 [Drug]): 2.4 fold
[10]
  Fold change in IC50 (IC50 [Drug + Cobicistat]/IC50 [Drug]): 3.5 fold
[11]
  Fold change in IC50 (IC50 [Drug + Cobicistat]/IC50 [Drug]): 3.4 fold
[12]
  Fold change in IC50 (IC50 [Drug + Cobicistat]/IC50 [Drug]): 3.2 fold
[13]
  Fold change in IC50 (IC50 [Drug + Cobicistat]/IC50 [Drug]): 2.7 fold
[14]
  Fold change in IC50 (IC50 [Drug + Cobicistat]/IC50 [Drug]): 2.9 fold
[15]
  Fold change in IC50 (IC50 [Drug + Cobicistat]/IC50 [Drug]): 4.0 fold
[16]
  Fold change in IC50 (IC50 [Drug + Cobicistat]/IC50 [Drug]): 4.0 fold
[17]
  Fold change in IC50 (IC50 [Drug + Cobicistat]/IC50 [Drug]): 2.8 fold
[18]
  Fold change in IC50 (IC50 [Drug + Cobicistat]/IC50 [Drug]): 3.6 fold
[19]
  Fold change in IC50 (IC50 [Drug + Cobicistat]/IC50 [Drug]): 3.3 fold
[20]
  Fold change in IC50 (IC50 [Drug + Cobicistat]/IC50 [Drug]): 2.1 fold
[21]
  Fold change in IC50 (IC50 [Drug + Cobicistat]/IC50 [Drug]): 4.6 fold
[22]
  Fold change in IC50 (IC50 [Drug + Cobicistat]/IC50 [Drug]): 3.7 fold
[23]
  Fold change in IC50 (IC50 [Drug + Cobicistat]/IC50 [Drug]): 2.5 fold
[24]
  Fold change in IC50 (IC50 [Drug + Cobicistat]/IC50 [Drug]): 1.9 fold
[25]
  Fold change in IC50 (IC50 [Drug + Cobicistat]/IC50 [Drug]): 2.8 fold
[26]
  Fold change in IC50 (IC50 [Drug + Cobicistat]/IC50 [Drug]): 3.6 fold
[27]
  Fold change in IC50 (IC50 [Drug + Cobicistat]/IC50 [Drug]): 4.4 fold
[28]
  Fold change in IC50 (IC50 [Drug + Cobicistat]/IC50 [Drug]): 6.2 fold
[29]
  Fold change in IC50 (IC50 [Drug + Cobicistat]/IC50 [Drug]): 4.4 fold
[30]
  Fold change in IC50 (IC50 [Drug + Cobicistat]/IC50 [Drug]): 2.7 fold
